Assay results reported in patent US11591342B2, “Heterocyclic compound, application thereof and pharmaceutical composition comprising same” (SUZHOU SINOVENT PHARMACEUTICALS CO., LTD., priority 2018, dated 2023).

Tests used:
[1] = target: Autotaxin (ATX) (Homo sapiens (Human), UniProt Q13822); assay: ATX bioactivity assay (Amplex Red / choline oxidase / HRP fluorescence, LPC 16:0 substrate); type: biochemical; conditions: 30 min room temperature
[2] = target: CYP3A4 (Homo sapiens (Human), UniProt P08684); assay: Time-dependent inhibition of CYP3A4 (TDI assay, human liver microsomes); type: in vitro ADME; conditions: for CYP3A4 TDI % @ 10 μM: human liver microsomes, Midazolam substrate, 30 min with NADPH vs 0 min; for time-dependent inhibition on CYP3A4 (conclusion): conclusion drawn from Table 3, 10 μM
Method in brief: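 Human liver microsomes (final 1 mg/mL) preincubated with test compound for 0 min without NADPH or 30 min with NADPH in 100 mM K-phosphate pH 7.4, 37 °C. Aliquot then diluted into midazolam substrate plus NADPH and incubated 15 min at 37 °C. Quenched with acetonitrile; metabolite read by LC-MS/MS.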

[3] = tested on: LPA18:2 in mouse plasma; assay: Inhibition of LPA in mouse plasma (plasma LPA18:2 assay, LC-MS/MS); type: biochemical, CD1 mice; conditions: fresh CD1 mouse plasma, LPA18:2, 37° C. for 120 min
Procedure: Effect Example 2. Inhibition of LPA in Mouse Plasma by Compounds
20 mM stock solutions of the compounds were prepared with DMSO and then diluted to 1 mM, which was subjected to a serial 3-fold dilution to yield 10 working solutions.
Collection of Fresh Mouse Plasma:
CD1 mice were euthanized by CO2 inhalation. Approximately 1 mL of whole blood was taken by cardiac puncture, with EDTA-K2 for anticoagulation. The blood was centrifuged at 3220 g for 10 min at 4° C. for plasma collection.
Reactions were performed in a 96-well plate, and the samples were tested in duplicate. 1 μL of each working solution was added to 100 μL of plasma, with the final concentrations of […]. 1 μL of DMSO was added to plasma to serve as blank. The samples were incubated in a water bath at 37° C. for 120 min, and 600 μL of 10 μM tolbutamide in methanol was added to terminate the reaction. Tolbutamide also served as an internal standard. After 5 min of vortex mixing, the samples were centrifuged at 3220 g for 45 min at 4° C. to precipitate the protein. 100 μL of the supernatant was transferred to a new plate, diluted with water based on LC-MS response and peak shapes, mixed well and analyzed by LC-MS/MS.
LPA18:2 was quantified using peak area ratio (LPA18:2/internal standard), requiring no standard curve. For test compounds of different concentrations, LPA data was represented by a percentage decrease of LPA: 100-[((LPA peak area ratio of compound)/(LPA peak area ratio of control))×100]. IC50 was calculated using Graphpad Prism 6.0 software.

Sequence of CYP3A4 (P08684 whole entry): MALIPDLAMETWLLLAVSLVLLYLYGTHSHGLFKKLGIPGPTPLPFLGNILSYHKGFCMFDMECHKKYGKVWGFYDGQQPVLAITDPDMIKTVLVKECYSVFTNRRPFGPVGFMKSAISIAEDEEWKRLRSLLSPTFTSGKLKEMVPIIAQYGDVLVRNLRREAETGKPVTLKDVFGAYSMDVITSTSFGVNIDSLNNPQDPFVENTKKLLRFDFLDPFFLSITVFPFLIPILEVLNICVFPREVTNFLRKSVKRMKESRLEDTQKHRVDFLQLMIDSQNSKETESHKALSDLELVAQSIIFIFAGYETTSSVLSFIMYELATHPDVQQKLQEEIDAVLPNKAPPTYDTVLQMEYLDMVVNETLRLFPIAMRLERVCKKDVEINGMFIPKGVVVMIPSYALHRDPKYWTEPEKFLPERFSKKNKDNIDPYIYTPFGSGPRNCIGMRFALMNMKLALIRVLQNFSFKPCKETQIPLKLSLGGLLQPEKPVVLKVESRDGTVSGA

| SMILES | IC50 [1] [nM] | CYP3A4 TDI % @ 10 μM [2] [%] | time-dependent inhibition on CYP3A4 (conclusion) [2] | IC50 [3] [nM] |
| --- | --- | --- | --- | --- |
| CCN(c1nc(-c2ccc(F)cc2)c(C#N)s1)c1c2cc(N3CCN(CC(=O)N4CC(O)C4)CC3C(F)(F)F)cc(F)c2nn1CC (single isomer, unassigned) [Compound S-0134B, 2-(ethyl (2-ethyl-7-fluoro-5-(4-(2-(3-hydroxyazetidin-1-yl)-2-oxoethyl)-2-(trifluoromethyl)piperazin-1-yl)-2H-indazol-3-yl)amino)-4-(4-fluorophenyl)thiazole-5-carbonitrile] | 11 | 41.82 | weak time-dependent inhibition on CYP3A4 | 98 |
| CCc1[nH]c2ccc(N3CCN(CC(=O)N4CC(O)C4)CC3)nc2c1N(C)c1nc(-c2ccc(F)cc2)c(C#N)s1 [Compound S-0098, 2-((2-ethyl-5-(4-(2-(3-hydroxyazetidin-1-yl)-2-oxoethyl)piperazin-1-yl)-1H-pyrrolo[3,2-b]pyridin-3-yl)(methyl)amino)-4-(4-fluorophenyl) thiazole-5-carbonitrile] | 31 | 37.19 | weak time-dependent inhibition on CYP3A4 | 2 |
| CCN(c1nc(-c2ccc(F)cc2)c(C#N)s1)c1c2cc(N3CCN(CC(=O)N4CC(O)C4)CC3)cc(F)c2nn1CC [Compound S-0122, 2-(ethyl(2-ethyl-7-fluoro-5-(4-(2-(3-hydroxyazetidin-1-yl)-2-oxoethyl)piperazin-1-yl)-2H-indazol-3-yl)amino)-4-(4-fluorophenyl)thiazole-5-carbonitrile] | 25 | 38.25 | weak time-dependent inhibition on CYP3A4 | 61 |
| CCc1nn2c(C)cc(N3CCN(CC(=O)N4CC(O)C4)CC3)nc2c1N(C)c1nc(-c2ccc(F)cc2)c(C#N)s1 [Compound S-0035, 2-((2-ethyl-5-(4-(2-(3-hydroxyazetidin-1-yl)-2-oxoethyl)piperazin-1-yl)-7-methylpyrazolo[1,5-a]pyrimidin-3-yl)(methyl)amino)-4-(4-fluorophenyl)thiazole-5-carbonitrile] | 62 | −4.84 | no time-dependent inhibition on CYP3A4 | 300 |
| CCn1nc2ccc(N3CCN(CC(=O)N4CC(O)C4)CC3)nc2c1N(C)c1nc(-c2ccc(F)cc2)c(C#N)s1 [Compound S-0094, 2-((2-ethyl-5-(4-(2-(3-hydroxyazetidin-1-yl)-2-oxoethyl)piperazin-1-yl)-2H-pyrazolo[4,3-b]pyridin-3-yl)(methyl)amino)-4-(4-fluorophenyl) thiazole-5-carbonitrile] | 23 | 20.88 | no time-dependent inhibition on CYP3A4 | 13 |
| CCc1nc2ncc(N3CCN(CC(=O)N4CC(O)C4)CC3)cn2c1N(C)c1nc(-c2ccc(F)cc2)c(C#N)s1 [Compound S-0021, 2-((2-ethyl-6-(4-(2-(3-hydroxyazetidin-1-yl)-2-oxoethyl)piperazin-1-yl)imidazo[1,2-a]pyrimidin-3-yl)(methyl)amino)-4-(4-fluorophenyl)thiazole-5-carbonitrile] | 102 | 1.67 | no time-dependent inhibition on CYP3A4 | 790 |
| CCn1nc2c(F)cc(N3CCN(CC(=O)N4CC(O)C4)CC3)cc2c1N(C)c1nc(-c2ccc(F)cc2)c(C#N)s1 [Compound S-0025, 2-((2-ethyl-7-fluoro-5-(4-(2-(3-hydroxyazetidin-1-yl)-2-oxoethyl)piperazin-1-yl)-2H-indazol-3-yl)(methyl)amino)-4-(4-fluorophenyl)thiazole-5-carbonitrile] | 88 | 34.21 | weak time-dependent inhibition on CYP3A4 | 131 |
| CCn1nc2c(C)cc(N3CCN(CC(=O)N4CC(O)C4)CC3)nc2c1N(C)c1nc(-c2ccc(F)cc2)c(C#N)s1 [Compound S-0095, 2-((2-ethyl-5-(4-(2-(3-hydroxyazetidin-1-yl)-2-oxoethyl)piperazine-1-yl)-7-methyl-2H-pyrazolo[4,3-b]pyridin-3-yl)(methyl)amino)-4-(4-fluorophenyl)thiazole-5-carbonitrile] | 119 | 2.91 | no time-dependent inhibition on CYP3A4 | 309 |
| CCc1c(N(C)c2nc(-c3ccc(F)cc3)c(C#N)s2)c2nc(N3CCN(CC(=O)N4CC(O)C4)CC3)ccc2n1C [Compound S-0128, 2-((2-ethyl-5-(4-(2-(3-hydroxyazetidin-1-yl)-2-oxoethyl)piperazin-1-yl)-1-methyl-1H-pyrrolo[3,2-b]pyridin-3-yl)(methyl)amino)-4-(4-fluorophenyl)thiazole-5-carbonitrile] | 142 | 33.64 | weak time-dependent inhibition on CYP3A4 | 57 |
| CCc1oc2ccc(N3CCN(CC(=O)N4CC(O)C4)CC3)nc2c1N(CC)c1nc(-c2ccc(F)cc2)c(C#N)s1 [Compound S-0105CP, 2-(ethyl(2-ethyl-5-(4-(2-(3-hydroxyazetidin-1-yl)-2-oxoethyl)piperazin-1-yl)furo[3,2-b]pyridin-3-yl)amino)-4-(4-fluorophenyl)thiazole-5-carbonitrile] | 49 | 0 | no time-dependent inhibition on CYP3A4 | 111 |
| CCN(c1nc(-c2ccc(F)cc2)c(C#N)s1)c1c2nc(N3CCN(CC(=O)N4CC(O)C4)CC3)ccc2nn1CC [Compound S-0117, 2-(ethyl(2-ethyl-5-(4-(2-(3-hydroxyazetidin-1-yl)-2-oxoethyl)piperazin-1-yl)-2H-pyrazolo[4,3-b]pyridin-3-yl)amino)-4-(4-fluorophenyl)thiazole-5-carbonitrile] | 12 | 15.2 | no time-dependent inhibition on CYP3A4 | 38 |
| CCN(c1nc(-c2ccc(F)cc2)c(C#N)s1)c1c2nc(N3CCN(CC(=O)N4CC(O)C4)CC3)cc(C)c2nn1CC [Compound S-0124, 2-(ethyl(2-ethyl-5-(4-(2-(3-hydroxyazetidin-1-yl)-2-oxoethyl)piperazin-1-yl)-7-methyl-2H-pyrazolo[4,3-b]pyridin-3-yl)amino)-4-(4-fluorophenyl) thiazole-5-carbonitrile] | 24 | 8.74 | no time-dependent inhibition on CYP3A4 | 96 |
| CCc1oc2ccc(N3CCN(CC(=O)N4CC(O)C4)CC3)nc2c1N(C)c1nc(-c2ccc(F)cc2)c(C#N)s1 [Compound S-0097, 2-((2-ethyl-5-(4-(2-(3-hydroxyazetidin-1-yl)-2-oxoethyl)piperazin-1-yl)furo[3,2-b]pyridin-3-yl)(methyl)amino)-4-(4-fluorophenyl)thiazole-5-carbonitrile] | 160 | 12.51 | no time-dependent inhibition on CYP3A4 | 160 |
